According to article PMC4009859, “Novel Cold-Adapted Esterase MHlip from an Antarctic Soil Metagenome” (Biology, 2013):

Target: T1, MHlip (uncultured bacterium, UniProt D3YKV3)
T1 construct: full length, 262 residues, 28,075 Da (theoretical), C-terminal 6xHis tag (pET22b NdeI/XhoI), E. coli BL21(DE3), Ni-NTA; N-terminus MPFAH
Assay: spectrophotometric p-nitrophenol release at […] nm, initial rates, nonlinear Michaelis-Menten fit
Type: biochemical
Conditions: 20 mM Tris-HCl pH 8, 30 °C, pNPA 0-10 mM

T1 sequence (D3YKV3 1-262 limits assumed): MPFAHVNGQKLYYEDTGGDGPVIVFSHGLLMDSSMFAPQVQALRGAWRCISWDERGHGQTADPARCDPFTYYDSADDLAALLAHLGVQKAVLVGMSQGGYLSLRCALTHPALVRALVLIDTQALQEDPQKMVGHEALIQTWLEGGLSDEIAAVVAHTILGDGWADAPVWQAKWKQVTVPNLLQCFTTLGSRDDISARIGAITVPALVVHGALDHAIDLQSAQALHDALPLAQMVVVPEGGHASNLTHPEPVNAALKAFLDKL

Km: 1.2~0.1 mM
Structure (SMILES): CC(=O)Oc1ccc([N+](=O)[O-])cc1 [pNPA]
